Laboratory results from PMC2579691, “Safety and pharmacokinetics of motesanib in combination with gemcitabine for the treatment of patients with solid tumours” (British Journal of Cancer, 2008).
Each block holds one compound with its values, some of them ahead of it.

Legend:
[1] = plasma pharmacokinetics of gemcitabine in patients (phase 1b); details: for Tmax: h (range)
[2] = system: CYP3A4; parameters: method as in Shipley et al, 1992; Mini et al, 2006; details: ref Shipley et al, 1992; Mini et al, 2006; cited from earlier work
[3] = system: Kit; parameters: method as in Polverino et al, 2006; details: ref Polverino et al, 2006; cited from earlier work
[4] = system: PDGFR; parameters: method as in Polverino et al, 2006; details: ref Polverino et al, 2006; cited from earlier work
[5] = dose-limiting toxicities and adverse events in patients (phase 1b)
[6] = system: VEGFR3; parameters: method as in Polverino et al, 2006; details: ref Polverino et al, 2006; cited from earlier work
[7] = system: human umbilical vein endothelial cell (HUVEC) proliferation; details: in vitro, cited from earlier work
[8] = system: advanced solid tumours; test: best tumour response per modified RECIST; format: in vivo, human; details: for Confirmed complete response, n (%) / Confirmed objective response, % (95% CI) / Confirmed partial response, n (%) / Progressive disease, n (%) / Stable disease, n (%): with gemcitabine 1000 mg m^−2
Experimental: Computed tomography (CT) or magnetic resonance imaging (MRI) for tumour assessments were performed at baseline and at 12-week intervals, or as clinically indicated. In patients with baseline measurable disease tumour response per modified RECIST ([Therasse et al, 2000]) was assessed by the investigator. Complete and partial responses were confirmed using CT or MRI scans no less than 28 days after the initial response.

[9] = human, in vivo
[10] = system: VEGFR1; parameters: method as in Polverino et al, 2006; details: ref Polverino et al, 2006; cited from earlier work
[11] = clinical; details: human, in vivo
[12] = parameters: method as in Rosen et al, 2007; details: motesanib monotherapy, first-in-human study; ref Rosen et al, 2007; cited from earlier work
[13] = human, in vivo; remark: listed apart in the source

effect of motesanib coadministration on pharmacokinetics ([1]; combination therapy): not markedly affected
AUC(0-t) ([1]; human, plasma, intravenous, 1000 mg m^−2, AUC0–2, week 1, range across motesanib dose groups): 4720 to 6270 ng·h/mL
AUC(0-t) ([1]; human, plasma, intravenous, AUC0–2, week 2, range across motesanib dose groups): 6560 to 7920 ng·h/mL
Cmax ([1]; human, plasma, iv, 1000 mg m^−2): 9720 ng/mL
AUC(0-t) ([1]; human, plasma, iv, 1000 mg m^−2, AUC0–2, μg h ml^−1 (s.d.), gemcitabine 1000 mg m^−2 i.v. alone (week 1, day 1), motesanib 50 mg QD cohort): 5210 ng·h/mL
AUC(0-t) ([1]; human, plasma, iv, 1000 mg m^−2, AUC0–2, μg h ml^−1 (s.d.), gemcitabine 1000 mg m^−2 i.v. alone (week 1, day 1), motesanib 75 mg BID cohort): 6270 ng·h/mL
AUC(0-t) ([1]; human, plasma, iv, 1000 mg m^−2, AUC0–2, μg h ml^−1 (s.d.), gemcitabine 1000 mg m^−2 i.v. alone (week 1, day 1), motesanib 125 mg QD cohort): 4720 ng·h/mL
concentration at 2 h ([1]; human, plasma, iv, 1000 mg m^−2, C2, ng ml^−1 (s.d.), gemcitabine 1000 mg m^−2 i.v. alone (week 1, day 1), motesanib 50 mg QD cohort): 104 ng/mL
concentration at 2 h ([1]; human, plasma, iv, 1000 mg m^−2, C2, ng ml^−1 (s.d.), gemcitabine 1000 mg m^−2 i.v. alone (week 1, day 1), motesanib 75 mg BID cohort): 101 ng/mL
concentration at 2 h ([1]; human, plasma, iv, 1000 mg m^−2, C2, ng ml^−1 (s.d.), gemcitabine 1000 mg m^−2 i.v. alone (week 1, day 1), motesanib 125 mg QD cohort): 88 ng/mL
Tmax ([1]; human, plasma, iv, 1000 mg m^−2, tmax, gemcitabine 1000 mg m^−2 i.v. alone (week 1, day 1), motesanib 50 mg QD cohort): 0.5 h
Tmax ([1]; human, plasma, iv, 1000 mg m^−2, tmax, gemcitabine 1000 mg m^−2 i.v. alone (week 1, day 1), motesanib 75 mg BID cohort): 0.5 h
Tmax ([1]; human, plasma, iv, 1000 mg m^−2, tmax, gemcitabine 1000 mg m^−2 i.v. alone (week 1, day 1), motesanib 125 mg QD cohort): 0.38 h
AUC(0-t) ([1]; human, plasma, iv, AUC0–2, μg h ml^−1 (s.d.), gemcitabine 1000 mg m^−2 i.v. in combination with motesanib 50 mg QD (week 2, day 1)): 7920 ng·h/mL
AUC(0-t) ([1]; human, plasma, iv, AUC0–2, μg h ml^−1 (s.d.), gemcitabine 1000 mg m^−2 i.v. in combination with motesanib 75 mg BID (week 2, day 1)): 7090 ng·h/mL
AUC(0-t) ([1]; human, plasma, iv, AUC0–2, μg h ml^−1 (s.d.), gemcitabine 1000 mg m^−2 i.v. in combination with motesanib 125 mg QD (week 2, day 1)): 6560 ng·h/mL
concentration at 2 h ([1]; human, plasma, iv, C2, ng ml^−1 (s.d.), gemcitabine 1000 mg m^−2 i.v. in combination with motesanib 50 mg QD (week 2, day 1)): 183 ng/mL
concentration at 2 h ([1]; human, plasma, iv, C2, ng ml^−1 (s.d.), gemcitabine 1000 mg m^−2 i.v. in combination with motesanib 75 mg BID (week 2, day 1)): 234 ng/mL
concentration at 2 h ([1]; human, plasma, iv, C2, ng ml^−1 (s.d.), gemcitabine 1000 mg m^−2 i.v. in combination with motesanib 125 mg QD (week 2, day 1)): 133 ng/mL
Tmax ([1]; human, plasma, iv, tmax, gemcitabine 1000 mg m^−2 i.v. in combination with motesanib 50 mg QD (week 2, day 1)): 0.5 h
Tmax ([1]; human, plasma, iv, tmax, gemcitabine 1000 mg m^−2 i.v. in combination with motesanib 75 mg BID (week 2, day 1)): 0.5 h
Tmax ([1]; human, plasma, iv, tmax, gemcitabine 1000 mg m^−2 i.v. in combination with motesanib 125 mg QD (week 2, day 1)): 0.25 h
increase of mean Cmax and AUC in week 2 compared with week 1 ([1]; same patients, all motesanib dose groups): < 2 fold
Compound: Nc1ccn([C@@H]2O[C@H](CO)[C@@H](O)C2(F)F)c(=O)n1 [gemcitabine]
metabolism by CYP3A4 [2]: not metabolised by CYP3A4

Compound: CC1(C)CNc2cc(NC(=O)c3cccnc3NCc3ccncc3)ccc21 [motesanib]
deaths during the study ([5]; all patients, all deaths unrelated to motesanib treatment): Three patients died
durable stable disease ⩾24 weeks ([8]; all patients, with gemcitabine): No patients
cases of cholecystitis [9]: No cases of cholecystitis occurred
Cmax ([11]; 125 mg): 421 ng/mL
